Reference: BindingDB's records for doi:10.1002/cbic.200800600 (Parc De Recerca Biomedica De Barcelona, 2009)

How the values were obtained:
Assay in all cases: In Vitro Kinase Assay
Details in all cases: pH 7.5
[1] = biological target: Vascular endothelial growth factor receptor 2 (Homo sapiens, UniProt P35968)
Method: (§1) The IC50 for the different compounds was determined with Invitrogen Z'-LYTE kinase assay kit Ser/Thr 1 peptide PV3174 by following the manufacturer's instructions. To determine the IC50 of receptor tyrosine kinase, an assay based on the ELISA principle with kinases from Biomol (N-terminally fused to GST), POD-coupled antibody from Calbiochem (PY20)) and BM chem chemiluminescence ELISA substrate from Roche was performed.

Angiopoietin-1 receptor = Angiopoietin-1 receptor (Homo sapiens, UniProt Q02763)
Method: as §1

[2] = biological target: Insulin-like growth factor 1 receptor (Homo sapiens, UniProt P08069)
Method: as §1

Aurora kinase A = biological target: T1, Aurora kinase A (Homo sapiens, UniProt O14965)
T1 sequence (O14965 whole entry): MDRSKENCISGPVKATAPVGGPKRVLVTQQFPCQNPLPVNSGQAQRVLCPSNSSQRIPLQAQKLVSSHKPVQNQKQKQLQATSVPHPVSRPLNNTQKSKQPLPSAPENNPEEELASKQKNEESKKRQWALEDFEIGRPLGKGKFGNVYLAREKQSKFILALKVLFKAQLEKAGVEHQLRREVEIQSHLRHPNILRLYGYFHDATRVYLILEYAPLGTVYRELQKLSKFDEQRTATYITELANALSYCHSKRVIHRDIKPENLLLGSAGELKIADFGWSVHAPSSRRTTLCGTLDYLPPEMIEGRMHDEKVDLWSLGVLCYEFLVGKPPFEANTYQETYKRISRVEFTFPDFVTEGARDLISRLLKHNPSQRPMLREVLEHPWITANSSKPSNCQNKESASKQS
Method: as §1

[3] = biological target: Fibroblast growth factor receptor 1 (Homo sapiens, UniProt P11362)
Method: as §1

[4] = biological target: Vascular endothelial growth factor receptor 3 (Homo sapiens, UniProt P35916)
Method: as §1

Aurora kinase B = Aurora kinase B (Homo sapiens, UniProt Q96GD4)
Method: as §1

[5] = biological target: Epidermal growth factor receptor (Homo sapiens, UniProt P00533)
Method: as §1

Aurora kinase B, sequence (Q96GD4 whole entry): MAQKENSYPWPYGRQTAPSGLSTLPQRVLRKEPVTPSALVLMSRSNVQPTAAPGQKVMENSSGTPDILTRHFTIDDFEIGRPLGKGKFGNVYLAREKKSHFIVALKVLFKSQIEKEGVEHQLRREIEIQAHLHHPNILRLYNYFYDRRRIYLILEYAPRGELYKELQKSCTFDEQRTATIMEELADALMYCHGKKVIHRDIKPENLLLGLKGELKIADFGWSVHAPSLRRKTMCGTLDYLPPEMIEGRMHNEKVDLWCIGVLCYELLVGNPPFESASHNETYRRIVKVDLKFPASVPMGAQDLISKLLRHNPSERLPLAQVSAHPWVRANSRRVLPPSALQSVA
Epidermal growth factor receptor, sequence (P00533 whole entry): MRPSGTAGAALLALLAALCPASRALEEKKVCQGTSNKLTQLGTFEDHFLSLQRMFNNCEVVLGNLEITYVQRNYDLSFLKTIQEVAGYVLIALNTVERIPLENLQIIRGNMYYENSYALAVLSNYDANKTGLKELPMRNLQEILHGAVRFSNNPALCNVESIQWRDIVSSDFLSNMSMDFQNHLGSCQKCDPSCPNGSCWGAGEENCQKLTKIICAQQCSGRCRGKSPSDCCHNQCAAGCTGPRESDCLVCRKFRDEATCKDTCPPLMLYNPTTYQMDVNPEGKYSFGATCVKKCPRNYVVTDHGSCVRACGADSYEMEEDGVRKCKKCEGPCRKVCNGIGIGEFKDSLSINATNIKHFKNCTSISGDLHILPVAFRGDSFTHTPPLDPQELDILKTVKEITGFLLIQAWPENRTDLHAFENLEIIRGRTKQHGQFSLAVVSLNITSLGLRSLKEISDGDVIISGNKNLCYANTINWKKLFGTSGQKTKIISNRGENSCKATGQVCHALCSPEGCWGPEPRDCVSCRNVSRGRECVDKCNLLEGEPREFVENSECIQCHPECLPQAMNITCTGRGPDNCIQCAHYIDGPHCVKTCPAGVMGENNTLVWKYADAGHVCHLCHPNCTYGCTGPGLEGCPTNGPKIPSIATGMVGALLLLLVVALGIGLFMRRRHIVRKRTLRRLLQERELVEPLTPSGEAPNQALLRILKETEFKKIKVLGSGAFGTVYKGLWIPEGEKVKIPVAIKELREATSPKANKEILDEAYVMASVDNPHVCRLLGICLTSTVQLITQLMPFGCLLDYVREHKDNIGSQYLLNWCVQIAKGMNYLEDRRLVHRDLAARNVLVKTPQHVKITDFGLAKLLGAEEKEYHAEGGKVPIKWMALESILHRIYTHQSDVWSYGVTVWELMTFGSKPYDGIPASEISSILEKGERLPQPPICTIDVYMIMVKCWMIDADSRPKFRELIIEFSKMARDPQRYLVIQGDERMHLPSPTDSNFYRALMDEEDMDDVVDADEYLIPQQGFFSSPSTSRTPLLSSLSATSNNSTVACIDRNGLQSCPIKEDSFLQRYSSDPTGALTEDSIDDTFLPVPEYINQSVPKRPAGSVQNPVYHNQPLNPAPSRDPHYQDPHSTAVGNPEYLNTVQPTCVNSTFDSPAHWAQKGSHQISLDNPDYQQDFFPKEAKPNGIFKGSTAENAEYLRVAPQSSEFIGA
Angiopoietin-1 receptor, sequence (Q02763 whole entry): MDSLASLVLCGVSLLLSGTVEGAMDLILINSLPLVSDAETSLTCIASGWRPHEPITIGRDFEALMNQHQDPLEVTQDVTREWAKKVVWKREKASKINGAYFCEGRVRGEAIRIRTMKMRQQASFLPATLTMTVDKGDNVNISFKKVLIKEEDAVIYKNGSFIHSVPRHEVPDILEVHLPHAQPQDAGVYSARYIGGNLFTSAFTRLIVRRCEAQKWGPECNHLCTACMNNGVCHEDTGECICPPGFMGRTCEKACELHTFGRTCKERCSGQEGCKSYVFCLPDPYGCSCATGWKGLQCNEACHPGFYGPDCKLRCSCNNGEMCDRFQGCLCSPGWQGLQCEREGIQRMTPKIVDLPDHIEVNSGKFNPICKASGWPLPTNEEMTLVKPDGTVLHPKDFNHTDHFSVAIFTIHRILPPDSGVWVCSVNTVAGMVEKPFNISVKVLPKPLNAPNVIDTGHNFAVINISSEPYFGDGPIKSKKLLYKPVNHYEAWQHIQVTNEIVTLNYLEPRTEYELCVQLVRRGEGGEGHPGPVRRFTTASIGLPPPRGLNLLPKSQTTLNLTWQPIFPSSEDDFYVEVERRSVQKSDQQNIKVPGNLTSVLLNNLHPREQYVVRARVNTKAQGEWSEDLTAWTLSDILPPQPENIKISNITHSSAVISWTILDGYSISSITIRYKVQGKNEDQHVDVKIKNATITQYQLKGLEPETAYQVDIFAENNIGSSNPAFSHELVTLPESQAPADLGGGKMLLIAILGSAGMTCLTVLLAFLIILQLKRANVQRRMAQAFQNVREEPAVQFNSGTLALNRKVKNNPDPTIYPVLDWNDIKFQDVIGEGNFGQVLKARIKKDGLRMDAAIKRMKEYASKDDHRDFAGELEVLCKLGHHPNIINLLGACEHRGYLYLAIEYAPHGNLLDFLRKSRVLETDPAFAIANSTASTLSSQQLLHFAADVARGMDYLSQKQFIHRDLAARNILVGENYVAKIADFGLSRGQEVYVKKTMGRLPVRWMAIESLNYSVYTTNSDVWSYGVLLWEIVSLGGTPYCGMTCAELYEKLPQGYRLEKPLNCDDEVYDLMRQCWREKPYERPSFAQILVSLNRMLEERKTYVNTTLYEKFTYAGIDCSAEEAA
Insulin-like growth factor 1 receptor, sequence (P08069 31-736 limits assumed): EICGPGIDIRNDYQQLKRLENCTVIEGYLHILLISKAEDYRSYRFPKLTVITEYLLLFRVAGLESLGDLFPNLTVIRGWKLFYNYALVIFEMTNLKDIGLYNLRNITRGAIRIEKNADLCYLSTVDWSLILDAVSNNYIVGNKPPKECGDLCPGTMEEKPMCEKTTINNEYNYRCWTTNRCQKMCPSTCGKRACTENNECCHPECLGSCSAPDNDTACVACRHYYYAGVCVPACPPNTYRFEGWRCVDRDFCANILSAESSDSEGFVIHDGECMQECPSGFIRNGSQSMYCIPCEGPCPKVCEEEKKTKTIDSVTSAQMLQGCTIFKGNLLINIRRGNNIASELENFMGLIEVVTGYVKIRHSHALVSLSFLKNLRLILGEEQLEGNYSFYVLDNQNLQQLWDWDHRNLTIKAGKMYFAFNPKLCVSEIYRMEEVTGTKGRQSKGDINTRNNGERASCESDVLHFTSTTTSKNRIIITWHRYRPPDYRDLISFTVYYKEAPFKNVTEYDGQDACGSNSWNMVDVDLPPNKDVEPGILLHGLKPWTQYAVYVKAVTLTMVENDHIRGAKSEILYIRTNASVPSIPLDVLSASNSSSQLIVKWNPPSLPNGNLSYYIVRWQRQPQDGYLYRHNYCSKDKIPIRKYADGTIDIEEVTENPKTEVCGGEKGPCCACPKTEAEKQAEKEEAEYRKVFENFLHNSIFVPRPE
Insulin-like growth factor 1 receptor, sequence (P08069 741-1367 limits assumed): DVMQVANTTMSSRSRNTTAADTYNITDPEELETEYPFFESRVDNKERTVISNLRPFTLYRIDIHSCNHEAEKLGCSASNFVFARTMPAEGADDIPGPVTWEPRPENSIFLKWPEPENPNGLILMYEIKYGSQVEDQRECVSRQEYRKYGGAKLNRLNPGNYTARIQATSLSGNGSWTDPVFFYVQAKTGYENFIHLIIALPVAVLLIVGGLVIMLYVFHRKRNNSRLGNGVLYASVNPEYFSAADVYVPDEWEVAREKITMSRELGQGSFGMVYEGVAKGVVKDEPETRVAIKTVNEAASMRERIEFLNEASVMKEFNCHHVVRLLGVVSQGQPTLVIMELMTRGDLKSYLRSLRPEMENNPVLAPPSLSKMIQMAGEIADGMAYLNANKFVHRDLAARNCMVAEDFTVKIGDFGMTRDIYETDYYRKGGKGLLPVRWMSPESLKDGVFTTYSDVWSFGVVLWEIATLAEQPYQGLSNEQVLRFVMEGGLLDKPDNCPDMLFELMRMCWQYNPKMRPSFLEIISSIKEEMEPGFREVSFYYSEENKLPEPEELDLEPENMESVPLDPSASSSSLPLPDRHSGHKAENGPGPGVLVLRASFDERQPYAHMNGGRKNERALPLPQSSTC
Fibroblast growth factor receptor 1, sequence (P11362 whole entry): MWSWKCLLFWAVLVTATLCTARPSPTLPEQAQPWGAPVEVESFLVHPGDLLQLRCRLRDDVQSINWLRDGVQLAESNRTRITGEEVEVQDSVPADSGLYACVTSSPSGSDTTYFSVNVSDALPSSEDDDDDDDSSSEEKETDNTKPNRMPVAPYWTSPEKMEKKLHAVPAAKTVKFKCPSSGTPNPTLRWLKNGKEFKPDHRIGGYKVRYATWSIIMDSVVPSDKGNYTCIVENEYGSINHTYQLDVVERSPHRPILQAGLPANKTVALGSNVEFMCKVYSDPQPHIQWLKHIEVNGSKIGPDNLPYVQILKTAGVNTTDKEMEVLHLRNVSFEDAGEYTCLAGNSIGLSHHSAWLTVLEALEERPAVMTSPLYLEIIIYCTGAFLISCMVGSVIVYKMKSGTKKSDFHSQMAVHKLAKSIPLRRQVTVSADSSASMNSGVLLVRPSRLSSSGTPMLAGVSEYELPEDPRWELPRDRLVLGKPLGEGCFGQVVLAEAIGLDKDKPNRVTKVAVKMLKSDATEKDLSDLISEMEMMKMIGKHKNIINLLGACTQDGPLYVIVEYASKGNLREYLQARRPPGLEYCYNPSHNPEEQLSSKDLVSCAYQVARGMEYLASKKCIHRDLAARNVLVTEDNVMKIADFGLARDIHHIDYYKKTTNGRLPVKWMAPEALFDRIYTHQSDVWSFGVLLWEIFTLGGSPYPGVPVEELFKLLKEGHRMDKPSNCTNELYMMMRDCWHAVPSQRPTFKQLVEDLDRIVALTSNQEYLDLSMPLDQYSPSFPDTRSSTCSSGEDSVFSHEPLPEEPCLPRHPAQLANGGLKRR

| SMILES | IC50 [1] [µM] | IC50 (Angiopoietin-1 receptor) [µM] | IC50 [2] [µM] | IC50 (Aurora kinase A) [µM] | IC50 [3] [µM] | IC50 [4] [µM] | IC50 (Aurora kinase B) [µM] | IC50 [5] [µM] |
| --- | --- | --- | --- | --- | --- | --- | --- | --- |
| CC(C)Nc1nc(-c2ccco2)nc2ccc(C#CCO)cc12 [TC-28] | > 100 | > 100 | > 100 | 2.7 | > 100 | > 100 | > 100 | > 100 |
| CC(C)Nc1nc(-c2ccco2)nc2ccc(C=CC(C)(C)O)cc12 [TC-34] |  | > 100 | 41.5 | 1.9 | > 100 | 4.2 | 16.2 | > 100 |
